Results taken from ChEMBL document CHEMBL4665709, “Rational Avoidance of Protease Cleavage Sites and Symmetrical End-Tagging Significantly Enhances the Stability and Therapeutic Potential of Antimicrobial Peptides” (J Med Chem, 2020).
Converted amounts (≈) assume the structure as drawn. Where a SMILES comes first, the peptide text is derived from it.

How the values were obtained:
[1] = Therapeutic index, ratio of MHC for human RBC to geometric mean of peptide MIC for Streptococcus agalactiae H92; type: toxicity; details: human red blood cells (RBC), read-out: TI
[2] = Therapeutic index, ratio of MHC for human RBC to geometric mean of peptide MIC for Staphylococcus epidermidis ATCC 12228; type: toxicity; details: human red blood cells (RBC), read-out: TI
[3] = Therapeutic index, ratio of MHC for human RBC to geometric mean of peptide MIC for methicillin-resistant Staphylococcus aureus 43300; type: toxicity; details: human red blood cells (RBC), read-out: TI
[4] = Therapeutic index, ratio of MHC for human RBC to geometric mean of peptide MIC for Enterococcus faecalis ATCC 29212; type: toxicity; details: human red blood cells (RBC), read-out: TI
[5] = Therapeutic index, ratio of MHC for human RBC to geometric mean of peptide MIC for Staphylococcus aureus ATCC 29213; type: toxicity; details: human red blood cells (RBC), read-out: TI
[6] = Therapeutic index, ratio of MHC for human RBC to geometric mean of peptide MIC for Staphylococcus aureus 11011; type: toxicity; details: human red blood cells (RBC), read-out: TI
[7] = Therapeutic index, ratio of MHC for human RBC to geometric mean of peptide MIC for Salmonella pullorum 7913; type: toxicity; details: human red blood cells (RBC), read-out: TI
[8] = Therapeutic index, ratio of MHC for human RBC to geometric mean of peptide MIC for Salmonella typhimurium 7731; type: toxicity; details: human red blood cells (RBC), read-out: TI
[9] = Therapeutic index, ratio of MHC for human RBC to geometric mean of peptide MIC for Salmonella choleraesuis 503; type: toxicity; details: human red blood cells (RBC), read-out: TI
[10] = Therapeutic index, ratio of MHC for human RBC to geometric mean of peptide MIC for Escherichia coli UB1005; type: toxicity; details: human red blood cells (RBC), read-out: TI
[11] = Therapeutic index, ratio of MHC for human RBC to geometric mean of peptide MIC for Salmonella typhimurium 14028; type: toxicity; details: human red blood cells (RBC), read-out: TI
[12] = Therapeutic index, ratio of MHC for human RBC to geometric mean of peptide MIC for Escherichia coli ATCC 25922; type: toxicity; details: human red blood cells (RBC), read-out: TI
Staphylococcus aureus [13] = experiment: Antibacterial activity against Staphylococcus aureus ATCC 29213 after 18 to 24 hrs by CLSI-based broth microdilution method; type: functional; details: time hrs 18-24
Staphylococcus aureus [14] = experiment: Antibacterial activity against Staphylococcus aureus 11011 after 18 to 24 hrs by CLSI-based broth microdilution method; type: functional; details: time hrs 18-24
Escherichia coli [15] = experiment: Antibacterial activity against Escherichia coli ATCC 25922 after 18 to 24 hrs by CLSI-based broth microdilution method; type: functional; details: time hrs 18-24
Escherichia coli [16] = experiment: Antibacterial activity against Escherichia coli UB1005 after 18 to 24 hrs by CLSI-based broth microdilution method; type: functional; details: time hrs 18-24
Salmonella typhimurium [17] = experiment: Antibacterial activity against Salmonella typhimurium 14028 after 18 to 24 hrs by CLSI-based broth microdilution method; type: functional, Salmonella enterica subsp. enterica serovar Typhimurium; details: Salmonella enterica, time hrs 18-24
Salmonella typhimurium [18] = experiment: Antibacterial activity against Salmonella typhimurium 7731 after 18 to 24 hrs by CLSI-based broth microdilution method; type: functional, Salmonella enterica subsp. enterica serovar Typhimurium; details: Salmonella enterica, time hrs 18-24
[19] = Antibacterial activity against Salmonella pullorum 7913 after 18 to 24 hrs by CLSI-based broth microdilution method; type: functional, Salmonella enterica subsp. enterica serovar Pullorum; details: Salmonella enterica, time hrs 18-24
Salmonella enterica = experiment: Antibacterial activity against Salmonella choleraesuis 503 after 18 to 24 hrs by CLSI-based broth microdilution method; type: functional; details: time hrs 18-24
[20] = tested on: Staphylococcus epidermidis; experiment: Antibacterial activity against Staphylococcus epidermidis ATCC 12228 after 18 to 24 hrs by CLSI-based broth microdilution method; type: functional; details: time hrs 18-24
Enterococcus faecalis = experiment: Antibacterial activity against Enterococcus faecalis ATCC 29212 after 18 to 24 hrs by CLSI-based broth microdilution method; type: functional; details: time hrs 18-24
Staphylococcus aureus [21] = experiment: Antibacterial activity against methicillin-resistant Staphylococcus aureus 43300 after 18 to 24 hrs by CLSI-based broth microdilution method; type: functional; details: time hrs 18-24
Streptococcus agalactiae = experiment: Antibacterial activity against Streptococcus agalactiae H92 after 18 to 24 hrs by CLSI-based broth microdilution method; type: functional; details: time hrs 18-24
Escherichia coli [22] = experiment: Antibacterial activity against Escherichia coli ATCC 25922 after 18 to 24 hrs in presence of 150 mM Na+ by CLSI-based broth microdilution method; type: functional; details: time hrs 18-24
Erythrocyte = experiment: Hemolytic activity in human RBC assessed as hemolysis; type: ADME, cell-based
[23] = Hemolytic activity in human RBC assessed as hemolysis at 1 to 128 uM relative to control; type: ADME, cell-based, Erythrocyte; details: human red blood cells (RBC), dose 1-128 µM, read-out: Activity
[24] = Cytotoxicity against mouse RAW264.7 cells assessed as cell viability at 128 uM by MTT assay relative to control; type: cell-based; details: read-out: Activity
[25] = Cytotoxicity against HEK-293T cells assessed as cell viability at 128 uM by MTT assay relative to control; type: cell-based; details: human, read-out: Activity
Escherichia coli [26] = experiment: Antibacterial activity against Escherichia coli ATCC 25922 after 18 to 24 hrs in presence of 4.5 mM K+ by CLSI-based broth microdilution method; type: functional; details: time hrs 18-24
Escherichia coli [27] = experiment: Antibacterial activity against Escherichia coli ATCC 25922 after 18 to 24 hrs in presence of 1 mM Mg2+ by CLSI-based broth microdilution method; type: functional; details: time hrs 18-24
Escherichia coli [28] = experiment: Antibacterial activity against Escherichia coli ATCC 25922 after 18 to 24 hrs in presence of 8 uM Zn2+ by CLSI-based broth microdilution method; type: functional; details: time hrs 18-24
Escherichia coli [29] = experiment: Antibacterial activity against Escherichia coli ATCC 25922 after 18 to 24 hrs in presence of 6 uM NH4+ by CLSI-based broth microdilution method; type: functional; details: time hrs 18-24
Escherichia coli [30] = experiment: Antibacterial activity against Escherichia coli ATCC 25922 after 18 to 24 hrs in presence of 6 uM Fe3+ by CLSI-based broth microdilution method; type: functional; details: time hrs 18-24
Escherichia coli [31] = experiment: Antibacterial activity against Escherichia coli ATCC 25922 after 18 to 24 hrs in presence of 25% human serum by CLSI-based broth microdilution method; type: functional; details: time hrs 18-24
Escherichia coli [32] = experiment: Antibacterial activity against Escherichia coli ATCC 25922 after 18 to 24 hrs in presence of 50% human serum by CLSI-based broth microdilution method; type: functional; details: time hrs 18-24
Escherichia coli [33] = experiment: Antibacterial activity against Escherichia coli ATCC 25922 after 18 to 24 hrs in presence of 100% human serum by CLSI-based broth microdilution method; type: functional; details: time hrs 18-24
Staphylococcus aureus [34] = experiment: Antibacterial activity against Staphylococcus aureus ATCC 29213 after 18 to 24 hrs in presence of 150 mM Na+ by CLSI-based broth microdilution method; type: functional; details: time hrs 18-24
Staphylococcus aureus [35] = experiment: Antibacterial activity against Staphylococcus aureus ATCC 29213 after 18 to 24 hrs in presence of 4.5 mM K+ by CLSI-based broth microdilution method; type: functional; details: time hrs 18-24
Staphylococcus aureus [36] = experiment: Antibacterial activity against Staphylococcus aureus ATCC 29213 after 18 to 24 hrs in presence of 1 mM Mg2+ by CLSI-based broth microdilution method; type: functional; details: time hrs 18-24
Staphylococcus aureus [37] = experiment: Antibacterial activity against Staphylococcus aureus ATCC 29213 after 18 to 24 hrs in presence of 8 uM Zn2+ by CLSI-based broth microdilution method; type: functional; details: time hrs 18-24
Staphylococcus aureus [38] = experiment: Antibacterial activity against Staphylococcus aureus ATCC 29213 after 18 to 24 hrs in presence of 6 uM NH4+ by CLSI-based broth microdilution method; type: functional; details: time hrs 18-24
Staphylococcus aureus [39] = experiment: Antibacterial activity against Staphylococcus aureus ATCC 29213 after 18 to 24 hrs in presence of 6 uM Fe3+ by CLSI-based broth microdilution method; type: functional; details: time hrs 18-24
Staphylococcus aureus [40] = experiment: Antibacterial activity against Staphylococcus aureus ATCC 29213 after 18 to 24 hrs in presence of 25% human serum by CLSI-based broth microdilution method; type: functional; details: time hrs 18-24
Staphylococcus aureus [41] = experiment: Antibacterial activity against Staphylococcus aureus ATCC 29213 after 18 to 24 hrs in presence of 50% human serum by CLSI-based broth microdilution method; type: functional; details: time hrs 18-24
Staphylococcus aureus [42] = experiment: Antibacterial activity against Staphylococcus aureus ATCC 29213 after 18 to 24 hrs in presence of 100% human serum by CLSI-based broth microdilution method; type: functional; details: time hrs 18-24
[43] = Stability of compound at 100 degreeC after 30 to 90 mins; type: physicochemical; details: time 30-90 min

## CC[C@H](C)[C@H](N)C(=O)N[C@@H](CS)C(=O)N[C@@H](CCCNC(=N)N)C(=O)N[C@@H](CCCCN)C(=O)N1CCC[C@H]1C(=O)N[C@H](C(=O)N[C@H](C(=O)N[C@@H](CS)C(=O)N[C@@H](CCCNC(=N)N)C(=O)N[C@@H](CCCCN)C(=O)N1CCC[C@H]1C(=O)N[C@H](C(=O)N[C@H](C(=O)N[C@@H](CS)C(=O)N[C@@H](CCCNC(=N)N)C(=O)N[C@@H](CCCCN)C(=O)N1CCC[C@H]1C(=O)N[C@H](C(=O)N[C@H](C(=O)N[C@@H](CS)C(=O)N[C@@H](CCCNC(=N)N)C(=O)N[C@@H](CCCCN)C(=O)N1CCC[C@H]1C(=O)N[C@H](C(N)=O)[C@@H](C)CC)[C@@H](C)CC)[C@@H](C)CC)[C@@H](C)CC)[C@@H](C)CC)[C@@H](C)CC)[C@@H](C)CC (H-ICRKPIICRKPIICRKPIICRKPI-NH2)
[1]
  selectivity ratio: 2
[2]
  selectivity ratio: 2
[3]
  selectivity ratio: 2
[4]
  selectivity ratio: 2
[5]
  selectivity ratio: 2
[6]
  selectivity ratio: 2
[7]
  selectivity ratio: 32
[8]
  selectivity ratio: 32
[9]
  selectivity ratio: 32
[10]
  selectivity ratio: 32
[11]
  selectivity ratio: 32
[12]
  selectivity ratio: 32
Staphylococcus aureus [13]
  MIC: > 64 µM
Staphylococcus aureus [14]
  MIC: > 64 µM
Escherichia coli [15]
  MIC: 2 µM (≈ 5.72 µg/mL)
Escherichia coli [16]
  MIC: 2 µM (≈ 5.72 µg/mL)
Salmonella typhimurium [17]
  MIC: 2 µM (≈ 5.72 µg/mL)
Salmonella typhimurium [18]
  MIC: 4 µM (≈ 11.4 µg/mL)
[19]
  MIC: 16 µM (≈ 45.8 µg/mL)
Salmonella enterica
  MIC: 8 µM (≈ 22.9 µg/mL)
[20]
  MIC: > 64 µM
Enterococcus faecalis
  MIC: > 64 µM
Staphylococcus aureus [21]
  MIC: > 64 µM
Streptococcus agalactiae
  MIC: > 64 µM
Escherichia coli [22]
  MIC: 32 µM
Erythrocyte
  MHC: > 128 µM
[23]
  hemolysis at up to 128 µM: < 5%
[24]
  viability at 128 µM: > 90%
[25]
  viability at 128 µM: > 90%
Escherichia coli [26]
  MIC: 4 µM
Escherichia coli [27]
  MIC: 8 µM
Escherichia coli [28]
  MIC: 2 µM
Escherichia coli [29]
  MIC: 2 µM
Escherichia coli [30]
  MIC: 4 µM
Escherichia coli [31]
  MIC: 4 µM
Escherichia coli [32]
  MIC: 8 µM
Escherichia coli [33]
  MIC: 16 µM
Staphylococcus aureus [34]
  MIC: > 64 µM
Staphylococcus aureus [35]
  MIC: > 64 µM
Staphylococcus aureus [36]
  MIC: > 64 µM
Staphylococcus aureus [37]
  MIC: > 64 µM
Staphylococcus aureus [38]
  MIC: > 64 µM
Staphylococcus aureus [39]
  MIC: > 64 µM
Staphylococcus aureus [40]
  MIC: > 64 µM
Staphylococcus aureus [41]
  MIC: > 64 µM
Staphylococcus aureus [42]
  MIC: > 64 µM
[43]
  Stabilty: Stable
